{
  "source": "PubChem BioAssay AID624285",
  "about": "(Broad Institute, 2012)",
  "note": "Active and inactive are the calls of the source.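 Rule for the calls: active = signal-decreasing dose-response curve whose fitted half-maximal concentration is at or below twice the highest valid tested dose; inconclusive = flat fit at 30 to 70% signal loss, or poor fit; inactive = the rest.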",
  "data": [
    {"assay": "cell viability loss after compound exposure – 24 h, luminescence, cherry-picked samples, cytotoxicity control for PDI inhibitor project, dose response (AID 624285)", "details": "NIH3T3/HeLa viability, CellTiter-Glo ATP luminescence, 24 h; at 35 µM (top of the series)", "values": [
      {"smiles": "Cc1ccc(O)c(NC(=O)CSc2n[nH]c(-c3ccccc3)n2)c1", "activity change, negative = cytotoxicity": "-16.4% (inactive)"},
      {"smiles": "O=C(O)CCCCCn1c(SCC(=O)c2ccc(O)c(O)c2)nc2ccsc2c1=O", "activity change, negative = cytotoxicity": "-10.6% (inactive)"},
      {"smiles": "CCC(=O)Nc1ccc(-c2cc3ccccc3oc2=O)cc1", "activity change, negative = cytotoxicity": "-7.54% (inactive)"},
      {"smiles": "S=C(NCCc1ccccc1)Nc1ccccn1", "activity change, negative = cytotoxicity": "-3.47% (inactive)"},
      {"smiles": "CC1(C)CC[C@]2(C(=O)O)CC[C@]3(C)C(=CC[C@@H]4[C@@]5(C)CC[C@H](O[C@@H]6O[C@H](C(=O)O)[C@@H](O)[C@H](O[C@@H]7OC[C@H](O)[C@H](O)[C@H]7O)[C@H]6O)C(C)(C)[C@@H]5CC[C@]43C)[C@@H]2C1", "activity change, negative = cytotoxicity": "-3.34% (inactive)"},
      {"smiles": "CCCCn1c(SCC(=O)NC2CCS(=O)(=O)C2)nc2ccccc2c1=O", "note": "(stereo not drawn)", "activity change, negative = cytotoxicity": "-8.17% (inactive)"},
      {"smiles": "CCOC(=O)CN(c1ccccc1)S(=O)(=O)c1ccc(F)cc1", "activity change, negative = cytotoxicity": "-10.3% (inactive)"},
      {"smiles": "COc1ccc(N2CCN(CC(=O)c3ccc(O)c(C)c3O)CC2)cc1", "activity change, negative = cytotoxicity": "-3.44% (inactive)"},
      {"smiles": "CCCc1cc(=O)[nH]c(SCCOc2ccc(OCC)cc2)n1", "activity change, negative = cytotoxicity": "-5.03% (inactive)"},
      {"smiles": "O=C1C[C@H](c2ccc(O)cc2)Oc2cc(O[C@@H]3O[C@H](CO)[C@@H](O)[C@H](O)[C@H]3O)cc(O[C@@H]3O[C@H](CO)[C@@H](O)[C@H](O)[C@H]3O)c21", "activity change, negative = cytotoxicity": "-8.86% (inactive)"},
      {"smiles": "CCC(=O)N1CCc2cc(S(=O)(=O)CCC(=O)NCc3ccco3)ccc21", "activity change, negative = cytotoxicity": "-2.4% (inactive)"},
      {"smiles": "O=C1/C(=C\\c2ccc(O)cc2)CCC1CNc1ccc(Cl)cc1", "note": "(stereo not drawn)", "activity change, negative = cytotoxicity": "-7.39% (inactive)"},
      {"smiles": "COc1ccc(C2c3ccc(O)cc3Oc3ncn(Cc4ccco4)c(=N)c32)cc1OC", "note": "(stereo not drawn)", "activity change, negative = cytotoxicity": "-14.4% (inactive)"},
      {"smiles": "CCCNC(=O)Cn1c(-c2ccc(F)cc2)cc(C(=O)OCC)c1C", "activity change, negative = cytotoxicity": "-18.9% (inactive)"},
      {"smiles": "CCOC(=O)C1(CC2CC2)CCN(Cc2cc(Cl)c(O)c(OC)c2)CC1", "activity change, negative = cytotoxicity": "-20.4% (inactive)"},
      {"smiles": "COc1cc(C(=O)N2CCN(C/C=C/c3ccccc3)CC2)cc(OC)c1OC", "activity change, negative = cytotoxicity": "-12% (inactive)"},
      {"smiles": "CCCCn1c(N)c(N(CC(C)C)C(=O)c2cc(-c3ccncc3)nc3ccccc23)c(=O)[nH]c1=O", "activity change, negative = cytotoxicity": "-9.75% (inactive)"},
      {"smiles": "Cc1c(-n2cc(C(=O)c3cc(Br)ccc3O)cc(C#N)c2=O)c(=O)n(-c2ccccc2)n1C", "activity change, negative = cytotoxicity": "-12.8% (inactive)"},
      {"smiles": "O=C(CN(CCc1ccccc1)C(=O)CNS(=O)(=O)c1ccccc1)NCC1CCCO1", "note": "(stereo not drawn)", "activity change, negative = cytotoxicity": "-1.76% (inactive)"},
      {"smiles": "Cc1noc(C)c1S(=O)(=O)Nc1ccc2c(c1)CC(=O)N([C@H](C)CO)C[C@H](C)[C@@H](CN(C)S(=O)(=O)c1ccc(F)cc1)O2", "activity change, negative = cytotoxicity": "4.98% (inactive)"},
      {"smiles": "C[C@@H]1O[C@@H](Oc2c(-c3cc(O)c(O)c(O)c3)oc3cc(O)cc(O)c3c2=O)[C@H](O)[C@H](O)[C@H]1O", "activity change, negative = cytotoxicity": "-5.81% (inactive)"},
      {"smiles": "COC(=O)CC1OCC=C2CN3CCC45C6=CC(=O)C(=O)C([N+](=O)[O-])=C6NC4C1C2CC35", "note": "(stereo not drawn)", "activity change, negative = cytotoxicity": "-13% (inactive)"},
      {"smiles": "CN(C)S(=O)(=O)c1ccc(C(=O)Nc2ccc3nc(N4CCOCC4)sc3c2)cc1", "activity change, negative = cytotoxicity": "-20.7% (inactive)"},
      {"smiles": "CC(O)(c1cccnc1)c1nc(-c2cc(F)cc(F)c2)cs1", "note": "(stereo not drawn)", "activity change, negative = cytotoxicity": "-6.67% (inactive)"},
      {"smiles": "Cc1[nH]c2ccc(C(=O)NC3CCCC3)cc2c1C", "activity change, negative = cytotoxicity": "-3.79% (inactive)"},
      {"smiles": "O=c1cc(CSc2nnnn2-c2ccc(O)cc2)nc2sccn12", "activity change, negative = cytotoxicity": "-22.1% (inactive)"},
      {"smiles": "C/C=C(\\C)C(=O)NCCN1C2=NC[C@H](Cc3ccc(O)cc3)N2C[C@H]1Cc1ccc(O)cc1", "activity change, negative = cytotoxicity": "-2.15% (inactive)"},
      {"smiles": "O=C(/C=C/c1ccccc1)Nc1scc(-c2ccccc2)c1C(=O)O", "activity change, negative = cytotoxicity": "-11.6% (inactive)"},
      {"smiles": "CN(C)C(=O)CSc1nnc([C@H](Cc2c[nH]c3ccccc23)NC(=O)OC(C)(C)C)o1", "activity change, negative = cytotoxicity": "-2.37% (inactive)"},
      {"smiles": "CC1(C(=O)N2CCCCC2)CCN1C(=O)Cc1ccc(-c2ccccc2)cc1", "note": "(stereo not drawn)", "activity change, negative = cytotoxicity": "-5.8% (inactive)"},
      {"smiles": "Cc1c(O)ccc2c(CN3CCN(CCO)CC3)cc(=O)oc12", "activity change, negative = cytotoxicity": "-7.06% (inactive)"},
      {"smiles": "CCCCNC(=O)CCn1c(=O)c2ccccc2n(CC(=O)Nc2ccccc2OCC)c1=O", "activity change, negative = cytotoxicity": "-9.28% (inactive)"},
      {"smiles": "CC(NC(=O)COC(=O)Cc1ccccc1[N+](=O)[O-])c1ccccc1", "note": "(stereo not drawn)", "activity change, negative = cytotoxicity": "-0.036% (inactive)"},
      {"smiles": "O=C(Cn1nnc2ccccc21)OCC(=O)c1ccccc1", "activity change, negative = cytotoxicity": "-11.3% (inactive)"},
      {"smiles": "CCCCN(C(=O)C1=CC=CN2CCS(=O)(=O)N=C12)c1ccccc1", "activity change, negative = cytotoxicity": "-2.89% (inactive)"},
      {"smiles": "O=C(NCc1ccccc1)c1cc(C2CCCN(C(=O)C3CCCCC3)C2)on1", "note": "(stereo not drawn)", "activity change, negative = cytotoxicity": "-16.2% (inactive)"},
      {"smiles": "O=C(OCc1ccc(-c2ccccc2)cc1)c1cccc(O)c1", "activity change, negative = cytotoxicity": "-8.38% (inactive)"},
      {"smiles": "Cc1ccc(-n2ncc3c(=O)[nH]c(SCC(=O)N4CCCc5ccccc54)nc32)cc1", "activity change, negative = cytotoxicity": "-1.87% (inactive)"}
    ]}
  ]
}
